Consider 18 molecules from patent US20120184006A1, “Reductase Enzymes” (UTAH STATE UNIVERSITY, priority 2011, published 2012).

The target of data set [1] is T1, fatty acyl-CoA reductase (FACoAR) from M. aquaeolei VT8 (Marinobacter nauticus (Marinobacter aquaeolei), UniProt A1U3L3).
T1 sequence (A1U3L3 1-661): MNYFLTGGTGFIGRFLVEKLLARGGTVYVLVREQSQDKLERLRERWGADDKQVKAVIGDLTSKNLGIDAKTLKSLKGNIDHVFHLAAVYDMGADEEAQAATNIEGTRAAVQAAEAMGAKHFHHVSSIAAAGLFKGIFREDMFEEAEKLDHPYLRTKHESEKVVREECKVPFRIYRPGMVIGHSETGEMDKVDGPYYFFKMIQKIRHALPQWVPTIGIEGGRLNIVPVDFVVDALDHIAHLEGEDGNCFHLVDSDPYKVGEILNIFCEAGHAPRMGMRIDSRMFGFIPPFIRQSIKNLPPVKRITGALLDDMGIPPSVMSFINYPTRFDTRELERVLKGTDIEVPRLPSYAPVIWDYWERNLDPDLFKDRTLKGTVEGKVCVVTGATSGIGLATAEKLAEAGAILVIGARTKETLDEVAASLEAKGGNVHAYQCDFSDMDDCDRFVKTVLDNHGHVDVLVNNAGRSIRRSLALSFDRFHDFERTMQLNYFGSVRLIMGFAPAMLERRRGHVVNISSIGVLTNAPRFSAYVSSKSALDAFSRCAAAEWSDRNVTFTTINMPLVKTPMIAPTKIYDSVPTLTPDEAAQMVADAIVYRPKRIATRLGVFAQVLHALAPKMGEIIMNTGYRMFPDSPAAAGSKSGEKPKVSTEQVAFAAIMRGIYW
Description: Continuous spectrophotometric NADPH assay (decrease of NADPH at 340 nm). The data set is classed as biochemical. Conditions: for Rate of Reaction (nmol NADP^+ min^−1 mg proten^−1): 60 μm of the respective aldehyde as substrate; for % Specific Activity of Decanal: percent of the specific activity of decanal, 60 μm aldehyde. Here is the method: (§1) All assays were conducted in a total volume of 1 mL. A buffer containing 50 mM NaCl, 20 mM Tris-HCl pH 7.0, and 0.5 mg/mL BSA was prepared along with a 1 mM stock of aldehyde dissolved in dimethyl sulfoxide (DMSO) or a 0.1 mM stock of the acyl-CoA, and […] NADPH. All components including protein were degassed in sealed vials and placed under an argon atmosphere. NADPH was degassed as the solid prior to the addition of degassed buffer. Each assay was conducted by adding 75 μL of the NADPH stock, 58 μg protein for acyl-CoA assays or 15 μg protein for aldehyde assays, varying concentrations of aldehyde or acyl-CoA and buffer to bring the final volume to 1 mL. Each sample was continuously monitored for the decrease of NADPH at 340 nm on a Varian 50 Bio UV-visible spectrophotometer (Walnut Creek, Calif.). Initial rates were calculated in Excel using the linear initial rates of reaction obtained from the spectrophotometric assays by obtaining the slope from the best. In line and calculating nmol of NADPH oxidized per second. (Microsoft, Redmond, Wash.). These initial rates were used to calculate Km and Vmax values using the Igor Pro software package (Wavemetrics, Lake Oswego, Oreg.) fitting the initial rates to the Hill equation (31). NADPH specific activity assays were conducted identically as described above using a fixed 60 μM concentration of the various aldehyde substrates or 6 μM of the various acyl-CoA substrates.

In data set [2] the target is T1, fatty acyl-CoA reductase (FACoAR) from M. aquaeolei VT8. Put plainly: Continuous spectrophotometric DTNB assay (release of free CoA). The data set is classed as biochemical. Conditions: for Rate of Reaction (nmol NTB^2− min^−1 mg protein^−1): 6 μM of the respective CoA as substrate; for % Specific Activity of Palmitoyl-CoA: percent of the specific activity of palmitoyl-CoA, 6 μM substrate. Here is the method: Buffers and solutions were prepared as described above for NADPH assays. Each assay was conducted by adding 75 μL of the 2 mg/mL NADPH stock solution in buffer, 58 μg of protein, and 10 μL of a 10 mg/mL solution of DTNB in DMSO, varying concentrations of acyl-CoA and buffer to bring the volume to 1 mL. Reduction of acyl-CoA substrate was monitored by following the increase of the 2-nitro-5-thiobenzoate (NTB^2−) dianion concentration at 412 nm. […] These initial rates were used to calculate the apparent K, and Vmax values using the Igor Pro (Wavemetrics, Lake Oswego, Oreg.) software package fitting the initial rates to the Hill equation (Equation 1) where v is the initial velocity, Vmax is the maximum calculated velocity, [S]^n is the concentration of substrate and n is the Hill coefficient, K0.5^n is the approximation of Km or the approximate substrate concentration at which half of Vmax is obtained at a specific value of the Hill coefficient n. In the case of enzyme inhibition, a modified version of the Hill equation allowing for cooperative inhibition (Equation 2) where all of the coefficients are defined as for the Hill equation and the additional [i]^n is the concentration of inhibitor and n is the Hill coefficient. The Ki^n is the approximate concentration of inhibitor it takes to double the K0.5 at a specific value of the Hill coefficient n.

The next data set concerns M. aquaeolei VT8 FACoAR. Put plainly: Addition of detergents and reducing agents to the FACoAR kinetic assay. Particulars: varying concentrations (isopropanol 5%). Format: biochemical, Marinobacter aquaeolei VT8. An excerpt:
As part of our characterization, we attempted to alleviate the sigmoidal response of activity to substrate concentration by the addition of reducing agents and detergents. In the case of another type of acyl-CoA reductase, HMG-CoA reductase, the addition of reducing agents and/or detergents could limit, but not eliminate the sigmoidal kinetics related to cooperative binding. […] This seems to indicate the potential of some inter- or intra-protein interaction that is necessary for the activity to occur. To further investigate this possibility, the protein was analyzed by size exclusion chromatography to determine the native weight of the protein.

The test system of data set [3] is FALDR (fatty aldehyde reductase) from M. aquaeolei VT8. Particulars: previously tested enzyme, aldehyde substrate; cited from earlier work.
Substrate in data set [4]: CCCCCCCCCCCCCCCC(=O)SCCNC(=O)CCNC(=O)[C@H](O)C(C)(C)COP(=O)(O)OP(=O)(O)OC[C@H]1O[C@@H](n2cnc3c(N)ncnc32)[C@H](O)[C@@H]1OP(=O)(O)O
Put plainly: Continuous spectrophotometric DTNB assay (release of free CoA). Format: biochemical, Marinobacter aquaeolei VT8.

Substrate in data set [5]: CCCC/C=C\CCCCCCCCCC=O
Put plainly: Continuous spectrophotometric NADPH assay (decrease of NADPH at 340 nm). Particulars: pH 7.0. The data set is classed as biochemical, Marinobacter aquaeolei VT8. Here is the method:
as §1

Substrate in data set [6]: CCCCCCCCCCCCCCCC(=O)SCCNC(=O)CCNC(=O)[C@H](O)C(C)(C)COP(=O)(O)OP(=O)(O)OC[C@H]1O[C@@H](n2cnc3c(N)ncnc32)[C@H](O)[C@@H]1OP(=O)(O)O
Described as above. The data set is classed as biochemical, Marinobacter aquaeolei VT8. Conditions: other: FIG. 5, NADPH assay, acyl-CoA substrate; pH 7.0. Here is the method:
as §1

Where [7] appears, read: running text b50, fatty aldehyde reduction.
The mark [8] stands for this setting: other: FIG. 6, NADPH assay, aldehyde substrate.

For the molecule `CCCCCC=O` [Hexanal], in data set [1], the “Rate of Reaction (nmol NADP^+ min^−1 mg proten^−1)” value is reported as 1540 ± 30.0 nmol NADP^+ min^−1 mg proten^−1 and the “% Specific Activity of Decanal” value was 10%.
Take `CCCCCCCCCCCC(=O)SCCNC(=O)CCNC(=O)[C@H](O)C(C)(C)COP(=O)(O)OP(=O)(O)OC[C@H]1O[C@@H](n2cnc3c(N)ncnc32)[C@H](O)[C@@H]1OP(=O)(O)O` [Lauroyl-CoA]: in data set [2], the “Rate of Reaction (nmol NTB^2− min^−1 mg protein^−1)” value is 44.0 ± 6.3 nmol NTB^2− min^−1 mg protein^−1 and the “% Specific Activity of Palmitoyl-CoA” value was 80%.
As to `CCCCCCCCCCCC=O` [Dodecanal], in data set [1], the “Rate of Reaction (nmol NADP^+ min^−1 mg proten^−1)” value is 11700 ± 250 nmol NADP^+ min^−1 mg proten^−1 and the “% Specific Activity of Decanal” value was found to be 74%.
The corresponding values for `CCC=O` [Propanal] are 43 ± 6.0 nmol NADP^+ min^−1 mg proten^−1 and below 1%.
The corresponding values for `O=Cc1ccc2ccccc2c1` [2-Naphthaldehyde] are 5280 ± 10 nmol NADP^+ min^−1 mg proten^−1 and 3%.
For the molecule `CCCCCCCCCCCCCC(=O)SCCNC(=O)CCNC(=O)[C@H](O)C(C)(C)COP(=O)(O)OP(=O)(O)OC[C@H]1O[C@@H](n2cnc3c(N)ncnc32)[C@H](O)[C@@H]1OP(=O)(O)O` [Myristoyl-CoA], in data set [2], the “Rate of Reaction (nmol NTB^2− min^−1 mg protein^−1)” value was 34.1 ± 2.1 nmol NTB^2− min^−1 mg protein^−1 and the “% Specific Activity of Palmitoyl-CoA” value was 58%.
The corresponding values for `CCCCCCCC/C=C\CCCCCCCC(=O)SCCNC(=O)CCNC(=O)[C@H](O)C(C)(C)COP(=O)(O)OP(=O)(O)OC[C@H]1O[C@@H](n2cnc3c(N)ncnc32)[C@H](O)[C@@H]1OP(=O)(O)O` [Oleyl-CoA] are 41.5 ± 3.1 nmol NTB^2− min^−1 mg protein^−1 and 76%.
On to `CCCCCCCCCCCCCCCCCC(=O)SCCNC(=O)CCNC(=O)[C@H](O)C(C)(C)COP(=O)(O)OP(=O)(O)OC[C@H]1O[C@@H](n2cnc3c(N)ncnc32)[C@H](O)[C@@H]1OP(=O)(O)O` [Stearoyl-CoA], for which, in data set [2], the “Rate of Reaction (nmol NTB^2− min^−1 mg protein^−1)” value is 37.6 ± 3.5 nmol NTB^2− min^−1 mg protein^−1 and the “% Specific Activity of Palmitoyl-CoA” value is 69%.
Regarding `CC=O` [Acetaldehyde], in data set [1], the “Rate of Reaction (nmol NADP^+ min^−1 mg proten^−1)” value is listed as 54 ± 6.0 nmol NADP^+ min^−1 mg proten^−1 and the “% Specific Activity of Decanal” value is listed as below 1%.
The corresponding values for `CCCCCCCCCC=O` [Decanal] are 15800 ± 860 nmol NADP^+ min^−1 mg proten^−1 and 100%.
The corresponding values for `CCCCCCCC=O` [Octanal] are 5200 ± 1500 nmol NADP^+ min^−1 mg proten^−1 and 33%.
`CC(C)O` [isopropanol]: the “effect on FACoAR activity” value in the data set on M. aquaeolei VT8 FACoAR was “inhibited activity”.
Take `OCCS` [β-mercaptoethanol]: in the data set on M. aquaeolei VT8 FACoAR, the “effect on FACoAR activity” value is reported as “inhibited activity”.
In the case of `CCCCC/C=C\C/C=C\C/C=C\C/C=C\CCCC(=O)SCCNC(=O)CCNC(=O)[C@H](O)C(C)(C)COP(=O)(O)OP(=O)(O)OC[C@H]1O[C@@H](n2cnc3c(N)ncnc32)[C@H](O)[C@@H]1OP(=O)(O)O` [Arachidonoyl-CoA], in data set [2], the “Rate of Reaction (nmol NTB^2− min^−1 mg protein^−1)” value is on record as 50.7 ± 3.66 nmol NTB^2− min^−1 mg protein^−1 and the “% Specific Activity of Palmitoyl-CoA” value stood at 93%.
On to Triton X-100, for which, in the data set on M. aquaeolei VT8 FACoAR, the “effect on FACoAR activity” value is on record as “inhibited activity”.
A word on the Km: it is the concentration of substrate that gives half-maximal velocity. In general, Vmax refers to the top rate of the reaction or transport when substrate is in excess. As to `CCCC/C=C\CCCCCCCCCC=O` [Cis-11-hexadecenal], in data set [1], the “Rate of Reaction (nmol NADP^+ min^−1 mg proten^−1)” value is 9910 ± 600 nmol NADP^+ min^−1 mg proten^−1 and the “% Specific Activity of Decanal” value was determined as 63%. Besides, the “n (Hill coefficient)” value in data set [1] (FIG. 6, NADPH assay, aldehyde substrate) was 2±0.8. For the same molecule, in data set [1] (fatty aldehyde reduction, read-out: Km (Hill equation)), the Michaelis-Menten constant (Km) was 25 µM. In data set [1] (setting [7]), the Vmax is around 10 µmol/min/mg and the cooperativity n is on record as around 2. In addition, in data set [3], the Km is 177 µM and the Vmax entry was “approximately 60 nmols min^−1 mg^−1”.
For the molecule `CCCCCCCC(=O)SCCNC(=O)CCNC(=O)[C@H](O)C(C)(C)COP(=O)(O)OP(=O)(O)OC[C@H]1O[C@@H](n2cnc3c(N)ncnc32)[C@H](O)[C@@H]1OP(=O)(O)O` [Octanoyl-CoA], in data set [2], the “Rate of Reaction (nmol NTB^2− min^−1 mg protein^−1)” value is listed as 18.8 ± 0.83 nmol NTB^2− min^−1 mg protein^−1 and the “% Specific Activity of Palmitoyl-CoA” value is 34%.

B1: fatty acyl-CoA reductase (FACoAR) from M. aquaeolei VT8 (Marinobacter nauticus VT8) (protein)
chain: T1 sequence (A1U3L3 1-661)
With B1, the K0.5 in data set [4] (acyl-CoA reduction, data of both DTNB and NADPH assays) came out at 4 µM; in data set [5] (fatty aldehyde reduction), 25 µM. Further, the Km in data set [4] (other: FIG. 5, DTNB assay, Hill fit, substrate) was found to be 4 ± 0.3 µM; in data set [5] (setting [8]), 48 ± 7 µM; in data set [6], 4.0 ± 0.2 µM. Besides, the Vmax in data set [5] (setting [8]) is given as 7.7±0.6 μmol min^−1 mg of protein^−1.
